Source: ChEMBL document CHEMBL1145083, “Novel estrogen receptor ligands based on an anthranylaldoxime structure: role of the phenol-type pseudocycle in the binding process” (J Med Chem, 2003)
Where “and” joins values, the source holds several entries; their conditions need not be identical. Identical values can stand only once.

What was measured:
[1] = target: T1, Estrogen receptor beta (Homo sapiens, UniProt Q92731); experiment: Agonist effect on transcriptional activation in HEC-1 cells expressing Estrogen receptor beta at 10e-8 M; format: functional, cell-based
T1 sequence (Q92731 whole entry): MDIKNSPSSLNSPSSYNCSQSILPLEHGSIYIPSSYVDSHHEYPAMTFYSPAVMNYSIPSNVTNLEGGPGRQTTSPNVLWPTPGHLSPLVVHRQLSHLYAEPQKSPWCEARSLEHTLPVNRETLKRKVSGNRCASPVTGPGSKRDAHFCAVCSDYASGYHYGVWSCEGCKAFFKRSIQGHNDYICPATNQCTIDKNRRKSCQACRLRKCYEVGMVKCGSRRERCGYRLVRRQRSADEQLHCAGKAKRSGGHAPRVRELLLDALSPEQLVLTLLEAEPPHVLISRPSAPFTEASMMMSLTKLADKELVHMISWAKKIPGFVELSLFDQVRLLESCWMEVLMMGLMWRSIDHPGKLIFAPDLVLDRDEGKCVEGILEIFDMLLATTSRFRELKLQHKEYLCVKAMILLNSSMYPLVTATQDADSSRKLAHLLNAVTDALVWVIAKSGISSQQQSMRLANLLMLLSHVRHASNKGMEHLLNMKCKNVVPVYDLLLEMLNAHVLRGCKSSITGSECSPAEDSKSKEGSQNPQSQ

[2] = target: T1, Estrogen receptor beta
[3] = target: T1, Estrogen receptor beta; experiment: Antagonist effect on transcriptional activation in HEC-1 cells expressing Estrogen receptor beta at 10e-6 M against 10e-9 M estradiol; format: functional, cell-based
[4] = target: T2, Estrogen receptor (Homo sapiens, UniProt P03372)
T2 sequence (P03372 whole entry): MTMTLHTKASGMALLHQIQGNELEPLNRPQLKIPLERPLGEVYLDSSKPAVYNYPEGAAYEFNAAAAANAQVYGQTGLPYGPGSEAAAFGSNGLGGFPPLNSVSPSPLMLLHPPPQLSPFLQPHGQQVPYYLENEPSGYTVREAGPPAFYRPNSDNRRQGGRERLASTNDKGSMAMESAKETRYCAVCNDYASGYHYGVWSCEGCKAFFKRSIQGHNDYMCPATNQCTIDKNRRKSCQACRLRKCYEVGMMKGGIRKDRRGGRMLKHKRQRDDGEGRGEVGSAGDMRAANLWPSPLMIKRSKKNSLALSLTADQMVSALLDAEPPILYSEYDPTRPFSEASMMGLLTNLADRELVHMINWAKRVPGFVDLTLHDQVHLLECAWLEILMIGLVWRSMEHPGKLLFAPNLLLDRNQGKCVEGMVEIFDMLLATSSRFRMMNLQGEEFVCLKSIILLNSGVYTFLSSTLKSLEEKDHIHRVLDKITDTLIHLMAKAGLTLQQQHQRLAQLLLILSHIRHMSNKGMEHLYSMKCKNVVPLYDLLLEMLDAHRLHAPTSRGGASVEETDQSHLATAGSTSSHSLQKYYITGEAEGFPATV

Row | Compound | Efficacy [1] | Ki [2] | Efficacy [3] | Ki [4]
1 | CNc1c(/C=N/O)ccc(-c2ccccc2)c1-c1ccccc1 | 1.1% and 22% | 5.2 nM | 71% | 3.7 nM
2 | CCNc1c(/C=N/O)ccc(-c2ccccc2)c1-c1ccccc1 | 0.94% and 4.9% | 0.048 nM | 85% | 0.47 nM
3 | Nc1c(/C=N/O)ccc(-c2ccccc2)c1-c1ccccc1 | 6% and 23% | 2.8 nM | 31% | 2.2 nM

Further molecules by falling Ki [2], results first:

Row | Efficacy [1] | Ki [2] | Efficacy [3] | Ki [4] | Compound
4 | 2.6% and 24% | 1.7 nM | 53% | 1.1 nM | O/N=C/c1ccc(-c2ccccc2)c(-c2ccccc2)c1O
5 | 1.3% and 20% | 0.27 nM | 69% | 0.15 nM | O/N=C/c1ccc(-c2ccccc2)c(-c2ccccc2)c1
